What was measured:
[1] = Solid state stability under accelerated stability testing conditions, HPLC; assay type: physicochemical
Description: (§1) High performance liquid chromatography (HPLC) analyses were performed on an Agilent 1100 or 1200 series HPLC equipped with a binary pump, diode-array detector, thermostated column compartment, and auto sampler. Separation and elution was achieved using a reverse-phase column and 0.1% triflouroacetic acid/water/acetonitrile mobile phase.
Solid samples of the free base monohydrate form of Compound M were placed under accelerated stability testing conditions (25° C./60% RH, 40° C./75% RH and 60° C./ambient RH) for 12 weeks.

[2] = Photostability of solid powder (1×ICH dose UV and visible light), HPLC; assay type: physicochemical; details: for degradation: 1×ICH dose, clear glass vials
Description: as §1
As shown in the table below minimal degradation, 0.4% and 0.2%, was detected in samples in clear glass vials under UV and visible light, respectively.

[3] = Visible (1200 klux × h), Amber vial
[4] = Visible (1200 klux × h), Clear vial

- Area % (215 nm), peak 4, RRT 1.53 ([1]; Week 8, 25/60): <0.1 Area %
- Area % (215 nm), peak monohydrate, RRT 1.00 ([1]; Week 8, 25/60): 99.97 Area %
- Total Impurities, Area % (215 nm) ([1]; Week 8, 25/60): <0.1 Area %
- Area % (215 nm), peak 2, RRT 1.09 ([1]; Week 8, 40/75): <0.1 Area %
- Area % (215 nm), peak 3, RRT 1.25 ([1]; Week 8, 40/75): <0.1 Area %
- Area % (215 nm), peak 4, RRT 1.53 ([1]; Week 8, 40/75): <0.1 Area %
- Area % (215 nm), peak monohydrate, RRT 1.00 ([1]; Week 8, 40/75): 99.92 Area %
- Total Impurities, Area % (215 nm) ([1]; Week 8, 40/75): <0.1 Area %
- Area % (215 nm), peak 2, RRT 1.09 ([1]; Week 8, 60 C.): <0.1 Area %
- Area % (215 nm), peak 3, RRT 1.25 ([1]; Week 8, 60 C.): <0.1 Area %
- Area % (215 nm), peak 4, RRT 1.53 ([1]; Week 8, 60 C.): <0.1 Area %
- Area % (215 nm), peak monohydrate, RRT 1.00 ([1]; Week 8, 60 C.): 99.97 Area %
- Total Impurities, Area % (215 nm) ([1]; Week 8, 60 C.): <0.1 Area %
- Area % (215 nm), peak 2, RRT 1.09 ([1]; Week 12, 25/60): <0.1 Area %
- Area % (215 nm), peak 3, RRT 1.25 ([1]; Week 12, 25/60): <0.1 Area %
- Area % (215 nm), peak 4, RRT 1.53 ([1]; Week 12, 25/60): <0.1 Area %
- Area % (215 nm), peak monohydrate, RRT 1.00 ([1]; Week 12, 25/60): 100.0 Area %
- Total Impurities, Area % (215 nm) ([1]; Week 12, 25/60): <0.1 Area %
- Area % (215 nm), peak 2, RRT 1.09 ([1]; Week 12, 40/75): <0.1 Area %
- Area % (215 nm), peak 3, RRT 1.25 ([1]; Week 12, 40/75): <0.1 Area %
- Area % (215 nm), peak 4, RRT 1.53 ([1]; Week 12, 40/75): <0.1 Area %
- Area % (215 nm), peak monohydrate, RRT 1.00 ([1]; Week 12, 40/75): 100.0 Area %
- Total Impurities, Area % (215 nm) ([1]; Week 12, 40/75): <0.1 Area %
- Area % (215 nm), peak 2, RRT 1.09 ([1]; Week 12, −20 C.): <0.1 Area %
- Area % (215 nm), peak 3, RRT 1.25 ([1]; Week 12, −20 C.): <0.1 Area %
- Area % (215 nm), peak 4, RRT 1.53 ([1]; Week 12, −20 C.): <0.1 Area %
- Area % (215 nm), peak monohydrate, RRT 1.00 ([1]; Week 12, −20 C.): 100.0 Area %
- Total Impurities, Area % (215 nm) ([1]; Week 12, −20 C.): <0.1 Area %
- chemical degradation ([2]; 1×ICH dose for UV and visible light, amber glass vials): no chemical degradation
- Area % (215 nm), peak No MS signal, RRT 0.80 ([2]; UV (200 W × h/m^2), Amber vial): <0.01 Area %
- Area % (215 nm), peak m/z 390, RRT 0.84 ([2]; UV (200 W × h/m^2), Amber vial): 0.06 Area %
- Area % (215 nm), peak m/z 520 [M + Na]^+, RRT 0.83 ([2]; UV (200 W × h/m^2), Amber vial): <0.01 Area %
- Area % (215 nm), peak m/z 581, RRT 0.82 ([2]; UV (200 W × h/m^2), Amber vial): <0.01 Area %
- Area % (215 nm), peak m/z 638, RRT 1.16 ([2]; UV (200 W × h/m^2), Amber vial): 0.05 Area %
- Area % (215 nm), peak monohydrate, RRT 1.00 ([2]; UV (200 W × h/m^2), Amber vial): 99.89 Area %
- Total Impurities, Area % (215 nm) ([2]; UV (200 W × h/m^2), Amber vial): 0.11 Area %
- Area % (215 nm), peak No MS signal, RRT 0.80 ([2]; UV (200 W × h/m^2), Clear vial): 0.02 Area %
- Area % (215 nm), peak m/z 390, RRT 0.84 ([2]; UV (200 W × h/m^2), Clear vial): 0.19 Area %
- Area % (215 nm), peak m/z 520 [M + Na]^+, RRT 0.83 ([2]; UV (200 W × h/m^2), Clear vial): 0.06 Area %
- Area % (215 nm), peak m/z 581, RRT 0.82 ([2]; UV (200 W × h/m^2), Clear vial): 0.05 Area %
- Area % (215 nm), peak m/z 638, RRT 1.16 ([2]; UV (200 W × h/m^2), Clear vial): 0.04 Area %
- Area % (215 nm), peak monohydrate, RRT 1.00 ([2]; UV (200 W × h/m^2), Clear vial): 99.64 Area %
- Total Impurities, Area % (215 nm) ([2]; UV (200 W × h/m^2), Clear vial): 0.36 Area %
- degradation ([2]; UV light): 0.4%
- Area % (215 nm), peak No MS signal, RRT 0.80 [2, 3]: <0.01 Area %
- Area % (215 nm), peak m/z 390, RRT 0.84 [2, 3]: 0.05 Area %
- Area % (215 nm), peak m/z 520 [M + Na]^+, RRT 0.83 [2, 3]: <0.01 Area %
- Area % (215 nm), peak m/z 581, RRT 0.82 [2, 3]: <0.01 Area %
- Area % (215 nm), peak m/z 638, RRT 1.16 [2, 3]: 0.05 Area %
- Area % (215 nm), peak monohydrate, RRT 1.00 [2, 3]: 99.89 Area %
- Total Impurities, Area % (215 nm) [2, 3]: 0.11 Area %
- Area % (215 nm), peak No MS signal, RRT 0.80 [2, 4]: <0.01 Area %
- Area % (215 nm), peak m/z 390, RRT 0.84 [2, 4]: 0.13 Area %
- Area % (215 nm), peak m/z 520 [M + Na]^+, RRT 0.83 [2, 4]: <0.01 Area %
- Area % (215 nm), peak m/z 581, RRT 0.82 [2, 4]: <0.01 Area %
- Area % (215 nm), peak m/z 638, RRT 1.16 [2, 4]: 0.04 Area %
- Area % (215 nm), peak monohydrate, RRT 1.00 [2, 4]: 99.83 Area %
- Total Impurities, Area % (215 nm) [2, 4]: 0.17 Area %
- degradation ([2]; visible light): 0.2%
SMILES: COCCOc1cnc2ccn([C@H](C)c3nnc4c(F)cc(-c5cnn(C)c5)cn34)c(=O)c2c1 [free base monohydrate form of Compound M, 6-{(1R)-1-[8-fluoro-6-(1-methyl-1H-pyrazol-4-yl)[1,2,4]triazolo[4,3-a]pyridin-3-yl]ethyl}-3-(2-methoxyethoxy)-1,6-naphthyridin-5(6H)-one]
- physical form ([1]; over 12 weeks at 25° C. and 60% relative humidity or at 40° C. and 75% relative humidity): remains in substantially the same physical form

— patent US9981988B2, “Polymorphic forms and co-crystals of a c-Met inhibitor” (AMGEN, INC., priority 2014, dated 2018)
